Source: PubChem BioAssay (NCI)
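Five concentrations, 48 hours, 96-well plates. TGI: total growth inhibition.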

system: NCI-H460 lung; test: NCI-60 cell line screen, 48 h

| Compound | TGI [µM] |
| --- | --- |
| Nc1c2c(nc3ccccc13)-c1ccccc1CC2 | 6.22 |
| CC(=O)O[C@@H]1[C@H](C(C)C)[C@@H](OC(C)=O)C/C(C)=C/CC[C@]2(C)O[C@@H]12 | > 100 |
| CCOC(=O)CSc1c(C(=O)OCC)c(=O)n(-c2ccccc2)c(=S)n1-c1ccccc1 | > 100 |

system: NCI-H522 lung; test: NCI-60 cell line screen, 48 h

| Compound | TGI [µM] |
| --- | --- |
| CN(C)C(=O)O/N=C1/C(c2c(O)[nH]c3ccccc23)=Nc2ccccc21 | 75.3 |
| O=[N+]([O-])c1cccc(-c2csc(NNC3=NC/C(=C/c4ccc5c(c4)OCO5)S3)n2)c1 | 42.9 |
| CC(=O)NC(Cc1ccc(O)cc1)C(=O)O (centres undefined) | > 100 |
| COCO[C@@H]1C[C@H]2C(=O)Nc3ccccc3C(=O)N2C1 | 37.5 |
| CN1C(=O)C2CCC(=O)N2c2cccnc21 (centres undefined) | > 100 |
| Nc1c2c(nc3ccccc13)-c1ccccc1CC2 | 24.5 |
| CC(=O)O[C@@H]1[C@H](C(C)C)[C@@H](OC(C)=O)C/C(C)=C/CC[C@]2(C)O[C@@H]12 | > 100 |
| CCOC(=O)CSc1c(C(=O)OCC)c(=O)n(-c2ccccc2)c(=S)n1-c1ccccc1 | > 100 |

system: OVCAR-3 ovarian; test: NCI-60 cell line screen, 48 h

| Compound | TGI [µM] |
| --- | --- |
| CN(C)C(=O)O/N=C1/C(c2c(O)[nH]c3ccccc23)=Nc2ccccc21 | 57 |
| O=[N+]([O-])c1cccc(-c2csc(NNC3=NC/C(=C/c4ccc5c(c4)OCO5)S3)n2)c1 | > 100 |
| CC(=O)NC(Cc1ccc(O)cc1)C(=O)O (centres undefined) | > 100 |
| CN1C(=O)C2CCC(=O)N2c2cccnc21 (centres undefined) | > 100 |
| CC(=O)O[C@@H]1[C@H](C(C)C)[C@@H](OC(C)=O)C/C(C)=C/CC[C@]2(C)O[C@@H]12 | > 100 |
| CCOC(=O)CSc1c(C(=O)OCC)c(=O)n(-c2ccccc2)c(=S)n1-c1ccccc1 | > 100 |

system: MDA-MB-231 breast; test: NCI-60 cell line screen, 48 h

| Compound | TGI [µM] |
| --- | --- |
| CN(C)C(=O)O/N=C1/C(c2c(O)[nH]c3ccccc23)=Nc2ccccc21 | 65 |
| O=[N+]([O-])c1cccc(-c2csc(NNC3=NC/C(=C/c4ccc5c(c4)OCO5)S3)n2)c1 | 93.9 |
| CC(=O)NC(Cc1ccc(O)cc1)C(=O)O (centres undefined) | > 100 |
| COCO[C@@H]1C[C@H]2C(=O)Nc3ccccc3C(=O)N2C1 | > 100 |
| CN1C(=O)C2CCC(=O)N2c2cccnc21 (centres undefined) | > 100 |
| Nc1c2c(nc3ccccc13)-c1ccccc1CC2 | 17.8 |
| CC(=O)O[C@@H]1[C@H](C(C)C)[C@@H](OC(C)=O)C/C(C)=C/CC[C@]2(C)O[C@@H]12 | > 100 |

system: SNB-75 CNS; test: NCI-60 cell line screen, 48 h

| Compound | TGI [µM] |
| --- | --- |
| CN(C)C(=O)O/N=C1/C(c2c(O)[nH]c3ccccc23)=Nc2ccccc21 | 8.69 |
| O=[N+]([O-])c1cccc(-c2csc(NNC3=NC/C(=C/c4ccc5c(c4)OCO5)S3)n2)c1 | 46.5 |
| COCO[C@@H]1C[C@H]2C(=O)Nc3ccccc3C(=O)N2C1 | > 100 |
| CC(=O)O[C@@H]1[C@H](C(C)C)[C@@H](OC(C)=O)C/C(C)=C/CC[C@]2(C)O[C@@H]12 | > 100 |
| CCOC(=O)CSc1c(C(=O)OCC)c(=O)n(-c2ccccc2)c(=S)n1-c1ccccc1 | > 100 |

system: M14 melanoma; test: NCI-60 cell line screen, 48 h

| Compound | TGI [µM] |
| --- | --- |
| CN(C)C(=O)O/N=C1/C(c2c(O)[nH]c3ccccc23)=Nc2ccccc21 | > 100 |
| O=[N+]([O-])c1cccc(-c2csc(NNC3=NC/C(=C/c4ccc5c(c4)OCO5)S3)n2)c1 | 96 |
| CC(=O)NC(Cc1ccc(O)cc1)C(=O)O (centres undefined) | > 100 |
| COCO[C@@H]1C[C@H]2C(=O)Nc3ccccc3C(=O)N2C1 | > 100 |
| CC(=O)O[C@@H]1[C@H](C(C)C)[C@@H](OC(C)=O)C/C(C)=C/CC[C@]2(C)O[C@@H]12 | > 100 |
| CCOC(=O)CSc1c(C(=O)OCC)c(=O)n(-c2ccccc2)c(=S)n1-c1ccccc1 | > 100 |

system: SF-268 CNS; test: NCI-60 cell line screen, 48 h

| Compound | TGI [µM] |
| --- | --- |
| CN(C)C(=O)O/N=C1/C(c2c(O)[nH]c3ccccc23)=Nc2ccccc21 | 28.5 |
| O=[N+]([O-])c1cccc(-c2csc(NNC3=NC/C(=C/c4ccc5c(c4)OCO5)S3)n2)c1 | 69 |
| CC(=O)NC(Cc1ccc(O)cc1)C(=O)O (centres undefined) | > 100 |
| COCO[C@@H]1C[C@H]2C(=O)Nc3ccccc3C(=O)N2C1 | > 100 |
| CN1C(=O)C2CCC(=O)N2c2cccnc21 (centres undefined) | > 100 |
| Nc1c2c(nc3ccccc13)-c1ccccc1CC2 | 22.3 |
| CC(=O)O[C@@H]1[C@H](C(C)C)[C@@H](OC(C)=O)C/C(C)=C/CC[C@]2(C)O[C@@H]12 | > 100 |
| CCOC(=O)CSc1c(C(=O)OCC)c(=O)n(-c2ccccc2)c(=S)n1-c1ccccc1 | > 100 |

system: NCI/ADR-RES ovarian; test: NCI-60 cell line screen, 48 h

| Compound | TGI [µM] |
| --- | --- |
| CN(C)C(=O)O/N=C1/C(c2c(O)[nH]c3ccccc23)=Nc2ccccc21 | > 100 |
| O=[N+]([O-])c1cccc(-c2csc(NNC3=NC/C(=C/c4ccc5c(c4)OCO5)S3)n2)c1 | 53 |
| CC(=O)NC(Cc1ccc(O)cc1)C(=O)O (centres undefined) | > 100 |
| COCO[C@@H]1C[C@H]2C(=O)Nc3ccccc3C(=O)N2C1 | > 100 |
| CN1C(=O)C2CCC(=O)N2c2cccnc21 (centres undefined) | > 100 |
| Nc1c2c(nc3ccccc13)-c1ccccc1CC2 | 27.8 |
| CC(=O)O[C@@H]1[C@H](C(C)C)[C@@H](OC(C)=O)C/C(C)=C/CC[C@]2(C)O[C@@H]12 | > 100 |
| CCOC(=O)CSc1c(C(=O)OCC)c(=O)n(-c2ccccc2)c(=S)n1-c1ccccc1 | 8.6 |

system: HCT-116 colon; test: NCI-60 cell line screen, 48 h

| Compound | TGI [µM] |
| --- | --- |
| CN(C)C(=O)O/N=C1/C(c2c(O)[nH]c3ccccc23)=Nc2ccccc21 | > 100 |
| O=[N+]([O-])c1cccc(-c2csc(NNC3=NC/C(=C/c4ccc5c(c4)OCO5)S3)n2)c1 | > 100 |
| CC(=O)NC(Cc1ccc(O)cc1)C(=O)O (centres undefined) | > 100 |
| COCO[C@@H]1C[C@H]2C(=O)Nc3ccccc3C(=O)N2C1 | > 100 |
| CN1C(=O)C2CCC(=O)N2c2cccnc21 (centres undefined) | > 100 |
| Nc1c2c(nc3ccccc13)-c1ccccc1CC2 | 13.5 |
| CC(=O)O[C@@H]1[C@H](C(C)C)[C@@H](OC(C)=O)C/C(C)=C/CC[C@]2(C)O[C@@H]12 | > 100 |
| CCOC(=O)CSc1c(C(=O)OCC)c(=O)n(-c2ccccc2)c(=S)n1-c1ccccc1 | > 100 |

system: OVCAR-5 ovarian; test: NCI-60 cell line screen, 48 h

| Compound | TGI [µM] |
| --- | --- |
| CN(C)C(=O)O/N=C1/C(c2c(O)[nH]c3ccccc23)=Nc2ccccc21 | > 100 |
| O=[N+]([O-])c1cccc(-c2csc(NNC3=NC/C(=C/c4ccc5c(c4)OCO5)S3)n2)c1 | > 100 |
| CC(=O)NC(Cc1ccc(O)cc1)C(=O)O (centres undefined) | > 100 |
| COCO[C@@H]1C[C@H]2C(=O)Nc3ccccc3C(=O)N2C1 | > 100 |
| CC(=O)O[C@@H]1[C@H](C(C)C)[C@@H](OC(C)=O)C/C(C)=C/CC[C@]2(C)O[C@@H]12 | > 100 |
| CCOC(=O)CSc1c(C(=O)OCC)c(=O)n(-c2ccccc2)c(=S)n1-c1ccccc1 | > 100 |

system: SW-620 colon; test: NCI-60 cell line screen, 48 h

| Compound | TGI [µM] |
| --- | --- |
| CN(C)C(=O)O/N=C1/C(c2c(O)[nH]c3ccccc23)=Nc2ccccc21 | > 100 |
| O=[N+]([O-])c1cccc(-c2csc(NNC3=NC/C(=C/c4ccc5c(c4)OCO5)S3)n2)c1 | > 100 |
| CC(=O)NC(Cc1ccc(O)cc1)C(=O)O (centres undefined) | > 100 |
| COCO[C@@H]1C[C@H]2C(=O)Nc3ccccc3C(=O)N2C1 | > 100 |
| CN1C(=O)C2CCC(=O)N2c2cccnc21 (centres undefined) | > 100 |
| Nc1c2c(nc3ccccc13)-c1ccccc1CC2 | 14.8 |
| CC(=O)O[C@@H]1[C@H](C(C)C)[C@@H](OC(C)=O)C/C(C)=C/CC[C@]2(C)O[C@@H]12 | > 100 |
| CCOC(=O)CSc1c(C(=O)OCC)c(=O)n(-c2ccccc2)c(=S)n1-c1ccccc1 | > 100 |

system: KM12 colon; test: NCI-60 cell line screen, 48 h

| Compound | TGI [µM] |
| --- | --- |
| CN(C)C(=O)O/N=C1/C(c2c(O)[nH]c3ccccc23)=Nc2ccccc21 | > 100 |
| O=[N+]([O-])c1cccc(-c2csc(NNC3=NC/C(=C/c4ccc5c(c4)OCO5)S3)n2)c1 | 29.2 |
| CC(=O)NC(Cc1ccc(O)cc1)C(=O)O (centres undefined) | > 100 |
| COCO[C@@H]1C[C@H]2C(=O)Nc3ccccc3C(=O)N2C1 | > 100 |
| CN1C(=O)C2CCC(=O)N2c2cccnc21 (centres undefined) | > 100 |
| CC(=O)O[C@@H]1[C@H](C(C)C)[C@@H](OC(C)=O)C/C(C)=C/CC[C@]2(C)O[C@@H]12 | > 100 |
| CCOC(=O)CSc1c(C(=O)OCC)c(=O)n(-c2ccccc2)c(=S)n1-c1ccccc1 | > 100 |

system: SN12C renal; test: NCI-60 cell line screen, 48 h

| Compound | TGI [µM] |
| --- | --- |
| CN(C)C(=O)O/N=C1/C(c2c(O)[nH]c3ccccc23)=Nc2ccccc21 | > 100 |
| O=[N+]([O-])c1cccc(-c2csc(NNC3=NC/C(=C/c4ccc5c(c4)OCO5)S3)n2)c1 | > 100 |
| CC(=O)NC(Cc1ccc(O)cc1)C(=O)O (centres undefined) | > 100 |
| COCO[C@@H]1C[C@H]2C(=O)Nc3ccccc3C(=O)N2C1 | > 100 |
| CN1C(=O)C2CCC(=O)N2c2cccnc21 (centres undefined) | > 100 |
| Nc1c2c(nc3ccccc13)-c1ccccc1CC2 | 16.9 |
| CC(=O)O[C@@H]1[C@H](C(C)C)[C@@H](OC(C)=O)C/C(C)=C/CC[C@]2(C)O[C@@H]12 | > 100 |
| CCOC(=O)CSc1c(C(=O)OCC)c(=O)n(-c2ccccc2)c(=S)n1-c1ccccc1 | > 100 |

system: BT-549 breast; test: NCI-60 cell line screen, 48 h

| Compound | TGI [µM] |
| --- | --- |
| CN(C)C(=O)O/N=C1/C(c2c(O)[nH]c3ccccc23)=Nc2ccccc21 | 43.7 |
| O=[N+]([O-])c1cccc(-c2csc(NNC3=NC/C(=C/c4ccc5c(c4)OCO5)S3)n2)c1 | > 100 |
| CC(=O)NC(Cc1ccc(O)cc1)C(=O)O (centres undefined) | > 100 |
| COCO[C@@H]1C[C@H]2C(=O)Nc3ccccc3C(=O)N2C1 | > 100 |
| CN1C(=O)C2CCC(=O)N2c2cccnc21 (centres undefined) | > 100 |
| Nc1c2c(nc3ccccc13)-c1ccccc1CC2 | 27 |
| CC(=O)O[C@@H]1[C@H](C(C)C)[C@@H](OC(C)=O)C/C(C)=C/CC[C@]2(C)O[C@@H]12 | > 100 |
| CCOC(=O)CSc1c(C(=O)OCC)c(=O)n(-c2ccccc2)c(=S)n1-c1ccccc1 | > 100 |

system: HS 578T breast; test: NCI-60 cell line screen, 48 h

| Compound | TGI [µM] |
| --- | --- |
| CN(C)C(=O)O/N=C1/C(c2c(O)[nH]c3ccccc23)=Nc2ccccc21 | 40.2 |
| O=[N+]([O-])c1cccc(-c2csc(NNC3=NC/C(=C/c4ccc5c(c4)OCO5)S3)n2)c1 | 69.7 |
| CC(=O)NC(Cc1ccc(O)cc1)C(=O)O (centres undefined) | > 100 |
| COCO[C@@H]1C[C@H]2C(=O)Nc3ccccc3C(=O)N2C1 | > 100 |
| CN1C(=O)C2CCC(=O)N2c2cccnc21 (centres undefined) | > 100 |
| Nc1c2c(nc3ccccc13)-c1ccccc1CC2 | 40.5 |
| CC(=O)O[C@@H]1[C@H](C(C)C)[C@@H](OC(C)=O)C/C(C)=C/CC[C@]2(C)O[C@@H]12 | > 100 |
| CCOC(=O)CSc1c(C(=O)OCC)c(=O)n(-c2ccccc2)c(=S)n1-c1ccccc1 | > 100 |
